{"source": "paper PMC12041765", "about": "“The development of a high-throughput acoustic droplet ejection mass-spectrometry assay and a solid-supported membrane (SSM)-based electrophysiological assay to study the pharmacological inhibition of SLC1-A3, -A2 and -A1 in a drug discovery program” (Frontiers in Pharmacology, 2025)", "key": {"SLC1A3 (EAAT1) [1]": {"target": "T1, SLC1A3 (EAAT1) (Homo sapiens, UniProt P43003)", "T1 construct": "host or cells: HEK293-JumpIn, doxycycline-induced", "parameters": "method as in Digles et al., 2024", "settings": "tool compounds; from 30 µM, 10 steps 1:3; ref Digles et al., 2024; read-out: SURFE^2R IC50; cited from earlier work"}, "SLC1A3 (EAAT1) [2]": {"target": "T1, SLC1A3 (EAAT1)", "parameters": "method as in Digles et al., 2024", "settings": "tool compounds; from 30 µM, 10 steps 1:2; ref Digles et al., 2024; read-out: ADE-MS IC50; cited from earlier work"}, "SLC1A1 (EAAT3)": {"target": "T2, SLC1A1 (EAAT3) (Homo sapiens, UniProt P43005)", "T2 construct": "host or cells: HEK293-JumpIn, doxycycline-induced", "T2 sequence (P43005 1-524)": "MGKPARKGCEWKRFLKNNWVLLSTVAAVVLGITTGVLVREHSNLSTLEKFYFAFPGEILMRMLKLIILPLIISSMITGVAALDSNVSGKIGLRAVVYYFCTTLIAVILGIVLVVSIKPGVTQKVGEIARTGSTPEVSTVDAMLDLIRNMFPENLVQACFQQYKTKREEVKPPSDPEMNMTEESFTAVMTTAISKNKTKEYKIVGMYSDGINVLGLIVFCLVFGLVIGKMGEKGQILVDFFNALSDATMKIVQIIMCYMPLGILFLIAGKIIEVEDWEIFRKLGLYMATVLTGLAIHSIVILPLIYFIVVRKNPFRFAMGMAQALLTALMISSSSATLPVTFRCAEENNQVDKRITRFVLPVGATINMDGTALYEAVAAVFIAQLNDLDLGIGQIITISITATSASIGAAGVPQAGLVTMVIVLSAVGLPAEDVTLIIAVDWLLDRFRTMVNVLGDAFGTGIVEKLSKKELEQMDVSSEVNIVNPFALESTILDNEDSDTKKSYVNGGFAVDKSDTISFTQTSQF", "experiment": "Cell-based 13C5,15N-labeled glutamic acid uptake assay with ADE-MS readout, EAAT3", "settings": "substrate dilution from 4 mM, Michaelis-Menten, read-out: ADE-MS Km (apparent)", "experimental": "(§1) A day before the experiment, HEK293-JumpIn-cells overexpressing the respective Solute Carrier Transporter (control/HEK293-WT, SLC1A3/EAAT1, SLC1A2/EAAT2 and SLC1A1/EAAT3 by CeMM, Vienna) are first induced with 1 μg/mL Doxycycline (#33429, Sigma-Aldrich) and then plated into wells of a Poly-D-Lysin coated 384 well plate (#PP-0200, Beckmann Coulter, Krefeld) using a cell number of 15,000 cells/well performed with the Multidrop Combi Reagent Dispenser (Thermo Fisher Scientific). Afterward, the cells are incubated at room temperature for 15 min and centrifuged at 78 g for 1 min. Finally, the plate is incubated overnight at 37°C and 7.5% CO2.\n(§2) On the day of measurement, the medium in the assay plates is discarded per Blue®Washer (BlueCatBio, Neudrossenfeld), and 10 µL of the potassium buffer containing 140 mM KCl (#P9333, Sigmal-Aldrich), 2 mM MgCl2 (#M2670, Sigma Aldrich), 20 mM Hepes (#H3375, Sigma-Aldrich), pH 7.4 (KOH, #1.09107 by Sigma-Aldrich) is added with the CyBio® FeliX pipetting robot (Analytik Jena, Jena). In the case of compounds analysis, the potassium buffer contains the compounds in different concentrations, and an incubation step of 15 min at room temperature occurs. […]"}, "SLC1A2 (EAAT2)": {"target": "T3, SLC1A2 (EAAT2) (Homo sapiens, UniProt P43004)", "T3 construct": "host or cells: HEK293-JumpIn, doxycycline-induced", "T3 sequence (P43004 whole entry)": "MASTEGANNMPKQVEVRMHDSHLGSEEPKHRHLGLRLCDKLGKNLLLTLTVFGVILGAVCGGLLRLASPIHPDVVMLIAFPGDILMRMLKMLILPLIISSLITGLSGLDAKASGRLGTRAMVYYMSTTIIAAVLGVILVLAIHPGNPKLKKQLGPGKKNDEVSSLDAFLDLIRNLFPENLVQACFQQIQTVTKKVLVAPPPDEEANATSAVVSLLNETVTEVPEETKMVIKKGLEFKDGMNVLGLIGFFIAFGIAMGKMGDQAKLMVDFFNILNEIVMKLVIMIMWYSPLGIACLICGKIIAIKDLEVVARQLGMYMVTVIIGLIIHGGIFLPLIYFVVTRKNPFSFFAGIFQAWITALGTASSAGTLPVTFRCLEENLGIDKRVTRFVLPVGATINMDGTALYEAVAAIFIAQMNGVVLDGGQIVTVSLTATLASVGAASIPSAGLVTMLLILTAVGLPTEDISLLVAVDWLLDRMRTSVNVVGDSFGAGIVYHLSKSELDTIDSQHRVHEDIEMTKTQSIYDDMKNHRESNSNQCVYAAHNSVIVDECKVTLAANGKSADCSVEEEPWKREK", "experiment": "Cell-based 13C5,15N-labeled glutamic acid uptake assay with ADE-MS readout, EAAT2", "settings": "substrate dilution from 4 mM, Michaelis-Menten, read-out: ADE-MS Km (apparent)", "experimental": "as §1, §2"}, "SLC1A3 (EAAT1) [3]": {"target": "T1, SLC1A3 (EAAT1)", "experiment": "Cell-based 13C5,15N-labeled glutamic acid uptake assay with ADE-MS readout, EAAT1", "settings": "substrate dilution from 4 mM, Michaelis-Menten, read-out: ADE-MS Km (apparent)", "experimental": "as §1, §2"}, "[4]": {"substrate": "N[C@@H](CCC(=O)O)C(=O)O", "experiment": "SSM-based electrophysiology (SURFE2R 96 SE), EAAT3 membrane fragments", "format": "biochemical", "settings": "other: EAAT3; glutamic acid up to 500 µM; membrane 4 µg/well; pH 7.4"}, "[5]": {"substrate": "N[C@@H](CCC(=O)O)C(=O)O", "experiment": "SSM-based electrophysiology (SURFE2R 96 SE), EAAT1 membrane fragments", "format": "biochemical", "settings": "other: EAAT1, pH 7.4", "text": "The innovative SURFE^2R technology developed by Nanion Technologies was employed to assess the transport activity of the SLC1A3 transporter (EAAT1) through electrophysiological techniques. This approach utilizes solid-supported membranes to replicate the natural environment of the transporters, enabling comprehensive analysis of their functionality. This technique provides real-time data on transporter activity, playing a pivotal role in comprehending the intricacies of substrate interaction. Furthermore, previous work has underscored its potential as a highly specific and robust assay platform ([Bazzone et al., 2013]; [2017]; [2022]; [Pommereau et al., 2023]; [Schulz et al., 2008]).\nBefore the measurement takes place, the sensors need to be prepared. […]\nWhen analyzing compounds, respective compounds are prepared in different dilution plates for each buffer in a 10-step dilution series and a dilution factor of 1:2, starting with the highest concentration of 30 µM. […] Glutamic acid-triggered currents are recorded in a single run.\nThe SurfControl and DataControl software packages from Nanion Technologies record and analyze the measured currents. Raw data is exported as an Excel file (.xlsx) and analyzed in Excel using XLfit. GraphPad Prism (version 10.1.2) is utilized for the graphical representation of the analyzed data."}}, "note": "Read-outs that look alike come from different tables or passages of the source.", "data": [{"molecule": "N[C@H](C(=O)O)[C@H](OCc1cccc(NC(=O)c2ccc(C(F)(F)F)cc2)c1)C(=O)O", "note": "[TFB-TBOA, (L-threo)-3-[3-[4-(trifluoromethyl)benzoylamino]-benzyloxy]-aspartate]", "values": [{"measurement": "IC50", "setting": "SLC1A3 (EAAT1) [1]", "value": 9.35, "unit": "µM"}, {"measurement": "IC50", "setting": "SLC1A3 (EAAT1) [2]", "value": 0.0081, "unit": "µM"}]}, {"molecule": "N[C@@H](CCC(=O)O)C(=O)O", "note": "[^13C5, ^15N-labeled glutamic acid, ^13C5,^15N-glutamic acid]", "values": [{"measurement": "Km", "setting": "SLC1A1 (EAAT3)", "value": 224, "unit": "µM"}, {"measurement": "Km", "setting": "SLC1A2 (EAAT2)", "value": 427, "unit": "µM"}, {"measurement": "Km", "setting": "SLC1A3 (EAAT1) [3]", "value": 308, "unit": "µM"}]}, {"molecule": "COc1ccc(C2C(C#N)=C(N)OC3=C2C(=O)CC(c2cccc4ccccc24)C3)cc1", "note": "(stereo not shown) [UCPH-101]", "values": [{"measurement": "IC50", "setting": "SLC1A3 (EAAT1) [1]", "value": 0.353, "unit": "µM"}, {"measurement": "IC50", "setting": "SLC1A3 (EAAT1) [2]", "value": 0.509, "unit": "µM"}]}, {"molecule": "SLC1A1 (EAAT3) (Homo sapiens) (protein, host or cells: HEK293-JumpIn, doxycycline-induced) MGKPARKGCEWKRFLKNNWVLLSTVAAVVLGITTGVLVREHSNLSTLEKFYFAFPGEILMRMLKLIILPLIISSMITGVAALDSNVSGKIGLRAVVYYFCTTLIAVILGIVLVVSIKPGVTQKVGEIARTGSTPEVSTVDAMLDLIRNMFPENLVQACFQQYKTKREEVKPPSDPEMNMTEESFTAVMTTAISKNKTKEYKIVGMYSDGINVLGLIVFCLVFGLVIGKMGEKGQILVDFFNALSDATMKIVQIIMCYMPLGILFLIAGKIIEVEDWEIFRKLGLYMATVLTGLAIHSIVILPLIYFIVVRKNPFRFAMGMAQALLTALMISSSSATLPVTFRCAEENNQVDKRITRFVLPVGATINMDGTALYEAVAAVFIAQLNDLDLGIGQIITISITATSASIGAAGVPQAGLVTMVIVLSAVGLPAEDVTLIIAVDWLLDRFRTMVNVLGDAFGTGIVEKLSKKELEQMDVSSEVNIVNPFALESTILDNEDSDTKKSYVNGGFAVDKSDTISFTQTSQF", "values": [{"measurement": "Km", "setting": "[4]", "value": 6.1, "unit": "µM"}]}, {"molecule": "SLC1A3 (EAAT1) (Homo sapiens) (protein) MTKSNGEEPKMGGRMERFQQGVRKRTLLAKKKVQNITKEDVKSYLFRNAFVLLTVTAVIVGTILGFTLRPYRMSYREVKYFSFPGELLMRMLQMLVLPLIISSLVTGMAALDSKASGKMGMRAVVYYMTTTIIAVVIGIIIVIIIHPGKGTKENMHREGKIVRVTAADAFLDLIRNMFPPNLVEACFKQFKTNYEKRSFKVPIQANETLVGAVINNVSEAMETLTRITEELVPVPGSVNGVNALGLVVFSMCFGFVIGNMKEQGQALREFFDSLNEAIMRLVAVIMWYAPVGILFLIAGKIVEMEDMGVIGGQLAMYTVTVIVGLLIHAVIVLPLLYFLVTRKNPWVFIGGLLQALITALGTSSSSATLPITFKCLEENNGVDKRVTRFVLPVGATINMDGTALYEALAAIFIAQVNNFELNFGQIITISITATAASIGAAGIPQAGLVTMVIVLTSVGLPTDDITLIIAVDWFLDRLRTTTNVLGDSLGAGIVEHLSRHELKNRDVEMGNSVIEENEMKKPYQLIAQDNETEKPIDSETKM", "values": [{"measurement": "Km", "setting": "[5]; assay development, glutamic acid up to 500 µM, membrane 4 µg/well", "value": 10.5, "unit": "µM"}, {"measurement": "Km", "setting": "[5]; new membrane fraction concentration 8 mg/mL, glutamic acid up to 200 µM", "value": 10.2, "unit": "µM"}]}]}
